This note sets out measurements from patent US12692257B2, “2,4,6-tri-substituted pyrimidine compounds as ATR kinase inhibitors” (BEIJING TIDE PHARMACEUTICAL CO., LTD., priority 2020, dated 2026).

Broadly, the AUC is the area under the concentration-time curve, a measure of exposure. A word on the Cmax: it is the peak of the concentration-time curve. The Tmax is the time from dosing to the highest level.

The structures appear in SMILES notation.

In one data set the test system is TOV21G (ovarian cancer). Nature of the data set: Cell proliferation inhibition in vitro, CellTiter-Glo, TOV21G. As to conditions: Homo sapiens; TOV21G cells, 120 hours, CellTiter-Glo; read-out: TOV21G/IC50/μM. In kind it is cell-based. On the procedure:
(§1) By detecting the effect of compounds on cell activity in vitro in tumor cell lines TOV21G (ovarian cancer) and MV4-11 (leukemia), the inhibitory effect of compounds on cell proliferation was studied in this assay.
(§2) TOV21G cells and MV4-11 cells were purchased from American Type Culture Collection (ATCC).
TOV21G cells were cultured in MCDB105/M199 medium (containing 15% of FBS), and used for assaying when the cell confluence reached 85% or more. About 1000 cells were inoculated in each well of a 96-well culture plate, and cultured for 24 hours. Different concentrations (0-10 μM) of compounds to be assayed were added to treat the cells. Each group was assayed in triplicate. Blank wells (containing medium only) and control wells (inoculated cells without being treated with drug) were set. Cells were cultured for 120 hours. 40 μL of Cell Titer-Glo solutions (Promega, #G7573) were added to each well, and the cells were incubated with shaking for 20 min in the dark. 100 μL of solution was transferred from each well to a 96-well blank plate (Corning, #3917), and the luminescence value was read by Biotek Synergy H1 multifunctional microplate reader.

Data set [1] in a line: In vivo oral administration pharmacokinetics in mice. The conditions noted are these: mouse. Details: AUC: concentration or dose not given beside the values. From the text:
Based on the in vitro activity results, representative compounds were selected for in vivo pharmacokinetic studies.
In Vivo Oral Administration—Pharmacokinetic Results in Mice: […]

For the next data set, the system named is MV4-11 (leukemia). Nature of the data set: Cell proliferation inhibition in vitro, CellTiter-Glo, MV4-11. It counts as cell-based. As to conditions: Homo sapiens; MV4-11 cells, 120 hours, CellTiter-Glo; read-out: MV4-11/IC50/μM. On the procedure:
as §1, §2
MV-4-11 cells were cultured in IMDM medium (containing 20% of FBS). About 10,000 cells were inoculated in each well of a 96-well culture plate, and treated by adding different concentrations (0-10 μM) of compounds to be assayed. Each group was assayed in triplicate. Blank wells (containing medium only) and control wells (inoculated cells without being treated with drug) were set. Cells were cultured for 120 hours. 40 μL of Cell Titer-Glo solutions were added to each well, and the cells were incubated with shaking for 20 min in the dark. 100 μL of solution was transferred from each well to a 96-well blank plate, and the luminescence value was read by Biotek Synergy HI multifunctional microplate reader. Inhibition rate (%)=100%×(control well−assay well)/(control well−blank well)
(Cellular ATP, detected with luciferase, serves as a proxy for viable cell number.)

Another data set has as its target ATR kinase (Homo sapiens, UniProt Q13535). Nature of the data set: Assay of ATR kinase activity (time-resolved fluorescence, phosphorylation of p53-derived protein). It counts as biochemical. On the procedure: Biotinylated protein derived from p53 (Eurofins, art. No.: 14-952) was phosphorylated with ATR kinase. The amount of phosphorylated protein was determined by time-resolved fluorescence in this assay. The amount of phosphorylated protein was detected by anti-p53-phospho-(serine 15)-K-specific antibody (Cisbio, art. No.: 61GSTDLA) and d2 labeled anti-GST antibody (Cisbio, art. No. 61P08KAE). Before the assay, the following working solutions were formulated as required: 1×reaction buffer (20 mM HEPES PH8.0, 1% glycerol, 0.01% Brij-35), dilution buffer (20 mM HEPES PH8.0, 1% glycerol, 0.01% Brij-35, 5 mM DTT and 1% BSA), stop solution (20 mM HEPES PH8.0, 1% glycerol, 0.01% Brij-35, 250 mM EDTA), detection buffer (50 mM HEPES pH7.0, 150 mM NaCl, 267 mM KF, 0.1% sodium cholate, 0.01% Tween-20, 0.0125% sodium azide). The reagents used above were purchased from Sigma or Invitrogen, except for those whose manufacturers were mentioned.
Operations were as follows:
4× serially diluted compound solutions were prepared with 1× reaction buffer to give 9 compound solutions with different concentrations, and 2.5 μL of the 4× serially diluted compound solutions were added to a 384-well analysis plate (784075, Greiner). 4×p53 substrate working solution (40 nM) was prepared with 1× reaction buffer, and 2.5 μL of the 4×p53 substrate working solution was added to a 384-well analysis plate. 4×ATR/ATRIP working solution (12.8 ng/μL) was prepared with dilution buffer, and 2.5 μL of the 4×pATR/ATRIP working solution was added to a 384-well analysis plate. 4×ATP working solution (2 mM) was prepared with deionized water, and 2.5 μL of the 4×ATP working solution was added to a 384-well analysis plate. The plates were incubated at room temperature in dark for 30 minutes. 5 μL of stop solution was added to the 384 analysis plates. Finally, 5 μL of assay mixture (0.084 ng/μL Anti-phospho-p53(ser15)-K and 5 ng/μL Anti-GST-d2) was added to the 384 well analysis plates, and incubated at room temperature overnight. The fluorescence signal was detected with ENVISION (Perkinelmer) instrument (excitation wavelength: 320 nm, emission wavelength: 665 nm and 615 nm). The inhibition rate in each well was calculated by the fluorescence intensity value in each well:ER (Emission Ratio)=(Fluorescence intensity at 665 nm/Fluorescence intensity at 615 nm); inhibition rate=(ER of positive−ER of assay compound)/(ER of positive−ER of negative)×100%. IC50 values of compounds were calculated by standard software for parameter fitting (GraphPad Prism 6.0).

The nature of data set [2]: In vitro stability in mouse liver microsome. As to conditions: liver microsomes, read-out: Mouse liver microsome t1/2. In kind it is in vitro ADME. From the text: (§3) Based on the in vitro activity results, representative compounds were selected for assay studies on the stability in liver microsome, and the results were as follows.
(Liver microsomes are vesicles of endoplasmic reticulum, rich in cytochrome P450 enzymes.)

Data set [3] can be described thus: In vitro stability in human liver microsome. It counts as in vitro ADME. As to conditions: liver microsomes, read-out: Human liver microsome t1/2.
Description: as §3

In the next data set the target is mTOR (Homo sapiens, UniProt P42345). Nature of the data set: Kinase selectivity: inhibitory activity against mTOR. It counts as biochemical. As to conditions: 10 concentrations, 10 μM to 0.51 nM. On the procedure: (§4) The compound of the present disclosure was assayed for inhibition of the same family (ATM, DNA-PK and mTOR):
(§5) According to the assay method reported in the literature, the compound to be assayed was serially diluted 3-fold to 0.51 nM starting from 10 μM (a total of 10 concentrations), and assayed for the inhibitory activities against kinases ATM^1, DNA-PK^2 and mTOR^3, respectively.

A further data set deals with DNA-PK (Homo sapiens, UniProt P78527). Nature of the data set: Kinase selectivity: inhibitory activity against DNA-PK. In kind it is biochemical. The conditions noted are these: 10 concentrations, 10 μM to 0.51 nM; read-out: IC50/DNAPK. On the procedure:
as §4, §5

A further data set deals with ATM (Homo sapiens, UniProt Q13315). Nature of the data set: Kinase selectivity: inhibitory activity against ATM. It counts as biochemical. As to conditions: 10 concentrations, 10 μM to 0.51 nM. On the procedure:
as §4, §5

Chain of ATR kinase (Q13535 whole entry): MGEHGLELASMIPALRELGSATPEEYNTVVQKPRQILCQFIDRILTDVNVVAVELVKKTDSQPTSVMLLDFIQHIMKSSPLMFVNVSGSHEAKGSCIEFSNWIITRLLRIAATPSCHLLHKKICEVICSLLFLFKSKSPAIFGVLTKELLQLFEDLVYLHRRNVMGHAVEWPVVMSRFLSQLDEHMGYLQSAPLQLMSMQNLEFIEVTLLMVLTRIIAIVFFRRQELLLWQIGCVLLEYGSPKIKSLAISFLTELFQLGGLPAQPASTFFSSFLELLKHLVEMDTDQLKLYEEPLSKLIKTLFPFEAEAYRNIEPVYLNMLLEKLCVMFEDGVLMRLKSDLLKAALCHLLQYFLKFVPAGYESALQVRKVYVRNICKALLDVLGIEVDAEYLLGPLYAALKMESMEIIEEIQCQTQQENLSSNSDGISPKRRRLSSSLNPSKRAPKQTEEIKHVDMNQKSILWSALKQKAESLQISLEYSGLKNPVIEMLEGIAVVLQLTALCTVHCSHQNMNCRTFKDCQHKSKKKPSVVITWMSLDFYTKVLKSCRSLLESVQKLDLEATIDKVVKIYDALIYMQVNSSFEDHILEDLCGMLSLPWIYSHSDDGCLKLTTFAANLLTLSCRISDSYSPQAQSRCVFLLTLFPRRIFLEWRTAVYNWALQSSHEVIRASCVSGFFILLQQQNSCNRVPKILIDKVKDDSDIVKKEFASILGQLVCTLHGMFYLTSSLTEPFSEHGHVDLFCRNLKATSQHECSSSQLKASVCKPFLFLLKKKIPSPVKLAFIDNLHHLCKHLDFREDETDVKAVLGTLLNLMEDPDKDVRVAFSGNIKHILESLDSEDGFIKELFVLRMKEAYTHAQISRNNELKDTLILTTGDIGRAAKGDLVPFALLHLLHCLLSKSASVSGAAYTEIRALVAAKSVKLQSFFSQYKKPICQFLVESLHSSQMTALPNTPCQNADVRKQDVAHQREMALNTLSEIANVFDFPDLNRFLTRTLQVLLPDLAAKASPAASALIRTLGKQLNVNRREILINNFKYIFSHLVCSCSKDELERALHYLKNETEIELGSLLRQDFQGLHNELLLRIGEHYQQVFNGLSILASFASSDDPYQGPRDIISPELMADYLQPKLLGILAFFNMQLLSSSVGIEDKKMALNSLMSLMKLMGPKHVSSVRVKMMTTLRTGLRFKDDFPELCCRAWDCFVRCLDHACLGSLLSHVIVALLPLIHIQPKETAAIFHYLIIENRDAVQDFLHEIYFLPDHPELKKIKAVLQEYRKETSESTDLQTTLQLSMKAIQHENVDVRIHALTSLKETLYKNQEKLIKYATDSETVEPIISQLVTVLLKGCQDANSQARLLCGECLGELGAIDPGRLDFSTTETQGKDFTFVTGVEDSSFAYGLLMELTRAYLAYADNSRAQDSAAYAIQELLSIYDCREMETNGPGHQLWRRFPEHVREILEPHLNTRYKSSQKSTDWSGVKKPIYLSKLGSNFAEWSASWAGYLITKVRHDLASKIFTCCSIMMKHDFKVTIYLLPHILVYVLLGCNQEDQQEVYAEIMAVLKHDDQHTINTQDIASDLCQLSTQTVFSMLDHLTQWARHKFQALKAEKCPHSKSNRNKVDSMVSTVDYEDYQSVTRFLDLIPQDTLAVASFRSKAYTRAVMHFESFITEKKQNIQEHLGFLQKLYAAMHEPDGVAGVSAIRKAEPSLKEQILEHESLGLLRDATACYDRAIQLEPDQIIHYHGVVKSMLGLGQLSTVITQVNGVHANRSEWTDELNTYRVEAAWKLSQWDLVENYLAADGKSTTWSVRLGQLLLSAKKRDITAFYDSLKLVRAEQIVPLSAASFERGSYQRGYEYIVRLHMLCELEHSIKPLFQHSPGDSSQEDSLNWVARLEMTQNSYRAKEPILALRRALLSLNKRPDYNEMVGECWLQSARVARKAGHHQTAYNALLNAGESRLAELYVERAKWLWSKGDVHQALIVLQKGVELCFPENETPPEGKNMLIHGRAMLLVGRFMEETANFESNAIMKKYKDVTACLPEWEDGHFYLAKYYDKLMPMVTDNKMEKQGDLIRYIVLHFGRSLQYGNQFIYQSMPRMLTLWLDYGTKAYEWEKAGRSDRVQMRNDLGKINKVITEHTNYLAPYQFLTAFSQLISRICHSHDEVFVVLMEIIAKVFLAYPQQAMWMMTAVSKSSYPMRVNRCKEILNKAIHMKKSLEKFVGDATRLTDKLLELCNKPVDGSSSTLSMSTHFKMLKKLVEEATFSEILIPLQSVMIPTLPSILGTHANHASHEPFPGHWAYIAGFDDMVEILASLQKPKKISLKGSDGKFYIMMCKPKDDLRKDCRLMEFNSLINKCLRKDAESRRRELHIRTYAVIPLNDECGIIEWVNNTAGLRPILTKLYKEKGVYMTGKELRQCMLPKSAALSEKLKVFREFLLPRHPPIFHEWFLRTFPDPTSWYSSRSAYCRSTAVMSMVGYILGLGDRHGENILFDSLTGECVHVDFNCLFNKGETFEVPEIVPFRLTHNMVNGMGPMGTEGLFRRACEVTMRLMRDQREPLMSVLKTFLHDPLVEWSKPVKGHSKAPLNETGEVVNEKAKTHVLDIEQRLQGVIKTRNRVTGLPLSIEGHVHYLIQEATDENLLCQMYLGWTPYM
Chain of ATR kinase (Q8WXE1 whole entry partner): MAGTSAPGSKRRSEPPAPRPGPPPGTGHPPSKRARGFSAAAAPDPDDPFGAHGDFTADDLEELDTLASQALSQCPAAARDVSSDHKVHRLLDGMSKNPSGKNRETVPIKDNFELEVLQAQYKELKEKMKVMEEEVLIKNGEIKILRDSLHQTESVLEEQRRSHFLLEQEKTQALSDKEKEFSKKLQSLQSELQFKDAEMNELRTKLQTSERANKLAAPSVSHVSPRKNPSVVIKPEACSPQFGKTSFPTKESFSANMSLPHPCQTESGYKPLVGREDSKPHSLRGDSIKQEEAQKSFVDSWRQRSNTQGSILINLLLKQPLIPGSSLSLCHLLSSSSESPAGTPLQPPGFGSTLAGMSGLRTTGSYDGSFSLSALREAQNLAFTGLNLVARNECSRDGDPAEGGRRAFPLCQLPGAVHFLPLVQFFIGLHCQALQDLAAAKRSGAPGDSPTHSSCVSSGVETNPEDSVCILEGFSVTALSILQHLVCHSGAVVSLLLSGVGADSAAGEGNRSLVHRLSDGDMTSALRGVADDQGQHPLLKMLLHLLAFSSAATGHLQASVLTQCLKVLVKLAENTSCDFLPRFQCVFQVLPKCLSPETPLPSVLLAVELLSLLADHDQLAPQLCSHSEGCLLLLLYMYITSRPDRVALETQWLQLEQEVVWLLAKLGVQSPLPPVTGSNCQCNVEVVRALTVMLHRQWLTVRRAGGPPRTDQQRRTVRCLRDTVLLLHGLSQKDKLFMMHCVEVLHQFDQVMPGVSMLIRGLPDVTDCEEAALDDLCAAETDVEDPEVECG

For the molecule `CNc1nc2ccccc2n1-c1nc(-c2c(C)nn(-c3cncc(F)c3)c2C)cc(N2CCOC[C@H]2C)n1` [Compound B1], in the data set with TOV21G (ovarian cancer), the IC50 worked out at 0.194 µM. For the same molecule, in [1], the AUC stood at 8750 ng·h/mL, the highest level (Cmax) was 1450 ng/mL, the Tmax turned out to be 2.8 h and the half-life is 4.3 h. Moreover, the IC50 in the data set with MV4-11 (leukemia) amounted to 0.231 µM. Besides, on ATR kinase, the IC50 is 11 nM.

With `Cc1nn(-c2cncc(F)c2)c(C)c1-c1cc(N2CCOC[C@H]2C)nc(-c2cc(F)cc3[nH]ccc23)n1` [Compound A11], the IC50 came to 0.291 µM in the data set with TOV21G (ovarian cancer), 0.214 µM with MV4-11 (leukemia) and 10 nM against ATR kinase. This molecule also gave an AUC in [1] of 15200 ng·h/mL. In [1], the Cmax was found to be 1470 ng/mL. The Tmax in [1] came out at 3.3 h. Moreover, the half-life in [1] was 3 h; in data set [2], 2.23 h; in data set [3], 0.733 h.

As for `Cc1nn(-c2cnccc2F)c(C)c1-c1cc(N2CCOC[C@H]2C)nc(-c2cc(F)cc3[nH]ccc23)n1` [Compound A14], the IC50 with TOV21G (ovarian cancer) was found to be 0.522 µM; in the data set with MV4-11 (leukemia), 0.231 µM; against ATR kinase it was 9 nM.

Turning to `Cc1nn(-c2cncc(F)c2)c(C)c1-c1cc(N2CCOC[C@H]2C)nc(-c2cccc3[nH]ccc23)n1` [Compound A17], the IC50 amounted to 0.196 µM in the data set with TOV21G (ovarian cancer), 0.19 µM in the data set on MV4-11 (leukemia) and 5 nM on ATR kinase. For the same molecule, the AUC in data set [1] came to 8210 ng·h/mL. Besides, the Cmax in data set [1] worked out at 815 ng/mL. Besides, the Tmax in data set [1] turned out to be 1.75 h. The half-life in data set [1] is 2.3 h; in data set [2] it was 1.02 h; in data set [3] it was 1.08 h.

On to `Cc1c(-c2cc(N3CCOC[C@H]3C)nc(-c3ccnc4[nH]ccc34)n2)c(C(F)(F)F)nn1-c1cncc(F)c1` [Compound A20], for which the IC50 in the data set with TOV21G (ovarian cancer) is 0.284 µM; in the data set on MV4-11 (leukemia) it was 0.528 µM; against ATR kinase it was 11 nM.

In the case of `Cc1nn(-c2cncc(F)c2)c(C)c1-c1cc(N2CCOC[C@H]2C)nc(-c2ccnc3[nH]ccc23)n1` [Compound A19], the IC50 in the data set on TOV21G (ovarian cancer) came to 0.237 µM. In data set [1], the AUC worked out at 1730 ng·h/mL, the concentration peaked (Cmax) at 331 ng/mL, the Tmax was found to be 1 h and the half-life is 2.4 h. In addition, the IC50 in the data set on MV4-11 (leukemia) worked out at 0.312 µM. Further, at ATR kinase, the IC50 came to 2 nM.

Consider `Cc1nn(-c2ccnnc2)c(C)c1-c1cc(N2CCOC[C@H]2C)nc(-c2cc(F)cc3[nH]ccc23)n1` [Compound A15], for which the IC50 was 0.234 µM with TOV21G (ovarian cancer), 0.107 µM in the data set with MV4-11 (leukemia) and 2 nM at ATR kinase.

Turning to `CNc1nc2ccccc2n1-c1nc(-c2c(C)nn(-c3cccnc3)c2C)cc(N2CCOC[C@H]2C)n1` [Compound B6], the IC50 was found to be 0.483 µM in the data set with TOV21G (ovarian cancer), 0.439 µM with MV4-11 (leukemia) and 13 nM against ATR kinase.

Turning to `CNc1nc2ccccc2n1-c1nc(-c2c(C)nn(-c3ccc(=O)[nH]c3)c2C)cc(N2CCOC[C@H]2C)n1` [Compound B9], the values for the IC50 in the data set on TOV21G (ovarian cancer), in the data set on MV4-11 (leukemia) and against ATR kinase were 0.226 µM, 0.157 µM and 3 nM, respectively.

For the molecule `CNc1nc2ccccc2n1-c1nc(-c2c(C)nn(-c3cncc(C(N)=O)c3)c2C)cc(N2CCOC[C@H]2C)n1` [Compound B10], the IC50 in the data set on TOV21G (ovarian cancer) came to 0.219 µM; in the data set on MV4-11 (leukemia), 0.287 µM; at ATR kinase, 5 nM.

Turning to `Cc1nn(-c2cncc(F)c2)c(C)c1-c1cc(N2CCOC[C@H]2C)nc(-c2cc(CO)cc3[nH]ccc23)n1` [Compound A22], the IC50 in the data set on TOV21G (ovarian cancer) is 0.457 µM; against mTOR, 1160 nM; at DNA-PK, 284 nM; against ATM it was 2590 nM; in the data set on MV4-11 (leukemia), 0.169 µM; against ATR kinase, 5 nM. This molecule had an AUC in [1] of 1200 ng·h/mL. This molecule returned a Cmax in data set [1] of 865 ng/mL. The Tmax in data set [1] was 0.33 h. The same molecule showed a half-life in [1] of 1.4 h.
